Test results from article PMC9032693, “Biological Evaluation of New Thienopyridinium and Thienopyrimidinium Derivatives as Human Choline Kinase Inhibitors” (Pharmaceutics, 2022).

Tests used:
[1] = tested on: Jurkat; experiment: Antiproliferative activity, resazurin assay, 72 h; format: cell-based, human
Description: (§1) Human cervix carcinoma (HeLa), Non-small lung adenocarcinoma (A549), Colon adenocarcinoma (HT29), and human triple negative breast cancer (MDA-MB-231) were cultured in Dulbecco’s modified Eagle’s media (DMEM). B-acute lymphoblastic leukemia (RS4;11 and SEM), T-acute lymphoblastic leukemia (Jurkat), and human promyelocytic cells (HL-60), were cultured in RPMI-1640 medium. Both media were purchased from Gibco, Life Technologies (Milan, Italy) and supplemented with 10% Fetal Bovine Serum (FBS, Invitrogen, Milan, Italy,). Every six months, each cell line was checked for the presence of mycoplasma by RT-PCR.
(§2) Stock solutions (10 mM) of the different compounds were made in DMSO. Cancer cells were seeded in tissue-treated, flat bottom, 384-well plates (Corning) according to their optimal density, (A549 1000 cells/wells; MDA-MB-231, HeLa and HT-29 2000 cells/well and finally Jurkat, HL-60 SEM and RS4;11 20.000 cells/well) in 27 µL of complete medium per well.
(§3) The day after cell seeding and immediately before cell treatment, 10 mM stock solutions of the compounds were pre-diluted to a […] concentration in 250 µL of Hank’s in a 96-well plate (Corning). Subsequent 1:5 dilutions were carried out using a microlab STAR 96-CORE liquid handling system (Hamilton), a robotized liquid handling tool that was employed for all steps, from cell seeding to drug dilution and cell treatment to ensure high reproducibility while reducing time for large screening execution. This pre-dilution step was necessary to avoid DMSO-related cytotoxicity and compound precipitation in the cell culture medium. In every case, DMSO concentration never exceeded 0.1%.
(§4) Positive (Bortezomib 1 µM) and negative (0.1% DMSO) controls were included in all the screened plates to allow for monitoring the Z’ factor throughout the entire screening. Cells were treated with 3 µL of the previously made dilutions; thus, generating a 6-point 5-fold dose–response curve starting from 10 µM. Within a plate, each drug concentration was tested in duplicate in two independent experiments for each compound.
(§5) Treated cells were then placed inside the CO2 incubator for 72 h at 37 °C. Cell viability was assessed by resazurin assay, in which 3 µL of resazurin per well were added using the previously described automated platform. Plates were placed in the incubator at 37 °C for 2 h, and then the fluorescence of each plate was read using a Spark 10 M multimode microplate reader (Tecan Group Ltd., Mannedorf, Switzerland) with 535 nm excitation wavelength and 600 nm emission wavelength.

[2] = tested on: RS 4;11; experiment: Antiproliferative activity, resazurin assay, 72 h; format: cell-based, human
Description: as §1, §2, §3, §4, §5

[3] = tested on: HeLa; experiment: Antiproliferative activity, resazurin assay, 72 h; format: cell-based, human
Description: as §1, §2, §3, §4, §5

[4] = tested on: HL-60; experiment: Antiproliferative activity, resazurin assay, 72 h; format: cell-based, human
Description: as §1, §2, §3, §4, §5

[5] = tested on: MDA-MB-231; experiment: Antiproliferative activity, resazurin assay, 72 h; format: cell-based, human
Description: as §1, §2, §3, §4, §5

[6] = tested on: A549; experiment: Antiproliferative activity, resazurin assay, 72 h; format: cell-based, human
Description: as §1, §2, §3, §4, §5

[7] = tested on: HT29; experiment: Antiproliferative activity, resazurin assay, 72 h; format: cell-based, human
Description: as §1, §2, §3, §4, §5

[8] = tested on: SEM cells; experiment: Antiproliferative activity, resazurin assay, 72 h; format: cell-based, human
Description: as §1, §2, §3, §4, §5

[9] = target: T1, CKα1 (Homo sapiens, UniProt P35790); experiment: Choline kinase assay ([methyl-14C]choline into PCho, purified enzyme); format: biochemical; conditions: for IC50: concentration required to inhibit CKα1 enzyme by 50%; for % Inhibition at 10 µM: purified CKα1, inhibitor 10 µM; for % Inhibition at 10 µM / % Inhibition at 30 µM: end-point assay; for % Inhibition at 30 µM: purified CKα1, inhibitor 30 µM
T1 construct: an N-terminally His-tagged truncated form of CKα1 (Δ75–457) was cloned into a pET-28a vector; His tag (N); made in house; host or cells: E. coli BL21 (DE3) Star
Description: The protein was produced and purified as previously described. Briefly, an N-terminally His-tagged truncated form of CKα1 (Δ75–457) was cloned into a pET-28a vector and expressed at 37 °C in E. coli BL21 (DE3) Star cells using 1 mM isopropyl β-D-1-thiogalactopyranoside (IPTG). After centrifugation, the cellular pellet was resuspended in 50 mM Tris-HCl pH 7.5, 500 mM NaCl, 0.2 mM phenylmethylsulphonyl fluoride (PMSF), DNase, and 0.5 mM β-mercaptoethanol, sonicated and subjected to a two-step purification procedure to isolate the target enzyme. […] Protein elution was completed using buffer A + 400 mM imidazole. A second size-exclusion chromatography step was then carried out to achieve complete purity. To this end, we used a HiPrep 26/60 Sephacryl 100 HR column (GE Healthcare, Little Chalfont, Buckinghamshire, UK) and a 20 mM Tris/HCl pH 7.5, 150 mM NaCl running buffer.
To study the effect of the compounds on CKα, an in vitro enzymatic assay was performed using the purified enzyme as previously reported in [19, 28, 29]. Briefly, the incorporation of ^14C from [methyl-^14C]choline into PCho in either the absence (control) or presence of different inhibitors at varying concentrations was used to determine the CK activity. The reaction mixture included 20 ng of purified CKα1, 10 mM ATP, 10 mM MgCl2, 100 mM Tris-HCl pH 8.5, and increasing concentrations of compounds. The mixture was preincubated at 37 °C for 5 min. Then, [methyl-^14C]choline chloride (1 mM, 4500 dpm/nmol) was added and the reaction was left to proceed for 10 min at 37 °C. The assay was stopped by immersing the reaction tubes in boiling water. PCho was separated by Thin Layer Chromatography using methanol/0.6% NaCl/28% NH4OH in water (50:50:5, v/v/v) as solvent. The radioactivity associated into PCho was determined in a Beckman 6000-TA (Madrid, Spain) liquid scintillation counter. The 50% inhibitory concentrations (IC50 values) were determined from the % enzyme activity at different concentrations of synthetic inhibitors relative to the control by using a sigmoidal dose–response curve (ED50plus v1.0 software).

T1 sequence (P35790 75-457): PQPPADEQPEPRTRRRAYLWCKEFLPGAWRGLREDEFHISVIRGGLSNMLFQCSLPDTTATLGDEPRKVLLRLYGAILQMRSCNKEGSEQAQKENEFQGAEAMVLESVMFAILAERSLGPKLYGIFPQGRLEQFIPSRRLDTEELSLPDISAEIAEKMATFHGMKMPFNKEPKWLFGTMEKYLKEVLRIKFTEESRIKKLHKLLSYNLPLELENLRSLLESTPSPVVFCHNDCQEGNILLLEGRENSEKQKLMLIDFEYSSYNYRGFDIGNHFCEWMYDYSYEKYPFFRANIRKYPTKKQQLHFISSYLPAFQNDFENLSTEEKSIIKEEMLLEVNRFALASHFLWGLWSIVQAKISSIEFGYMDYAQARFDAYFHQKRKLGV

Structure (SMILES)	GI50 [1]	GI50 [2]	GI50 [3]	GI50 [4]	GI50 [5]	GI50 [6]	GI50 [7]	GI50 [8]	IC50 [9]	% Inhibition at 10 µM [9]	% Inhibition at 30 µM [9]
[Br-].[Br-].c1cc2c(s1)c(N1CCCCC1)nc[n+]2Cc1ccc(-c2ccc(C[n+]3cnc(N4CCCCC4)c4sccc43)cc2)cc1 [Fa-24]	> 10 µM	> 10 µM	7.08 ± 1.3 µM	7.28 ± 1.1 µM	0.7 ± 0.07 µM	1.17 ± 0.2 µM	> 10 µM	> 10 µM	2.33 ± 0.21 µM	84.64%	98.40%
[Br-].[Br-].c1cc2c(N3CCCC3)nc[n+](Cc3ccc(-c4ccc(C[n+]5cnc(N6CCCC6)c6ccsc65)cc4)cc3)c2s1 [Fg-14]	> 10 µM	> 10 µM	2.53 ± 0.8 µM	1.35 ± 0.1 µM	0.94 ± 0.09 µM	0.28 ± 0.02 µM	4.16 ± 1 µM	> 10 µM	4.87 ± 0.57 µM	80.28%	94.14%
[Br-].[Br-].c1cc2c(s1)c(N1CCCC1)nc[n+]2Cc1ccc(CCCCc2ccc(C[n+]3cnc(N4CCCC4)c4sccc43)cc2)cc1 [Ff-7]	8.61 ± 1.3 µM	2.33 ± 0.3 µM	0.87 ± 0.05 µM	0.4 ± 0.05 µM	0.47 ± 0.04 µM	0.21 ± 0.03 µM	1.48 ± 0.04 µM	2.93 ± 0.2 µM	8.57 ± 2.8 µM	89.95%	95.88%
CN(c1ccccc1)c1nc[n+](Cc2ccc(-c3ccc(C[n+]4cnc(N(C)c5ccccc5)c5sccc54)cc3)cc2)c2ccsc12 [Fp-1]	> 10 µM	2.12 ± 0.2 µM	1.66 ± 0.01 µM	0.51 ± 0.05 µM	0.9 ± 0.02 µM	0.21 ± 0.02 µM	1.43 ± 0.03 µM	4.55 ± 0.5 µM	1.06 ± 0.22 µM		
[Br-].[Br-].c1cc2c(s1)c(N1CCCC1)cc[n+]2Cc1ccc(OCCOc2ccc(C[n+]3ccc(N4CCCC4)c4sccc43)cc2)cc1 [Ff-2]	> 10 µM	> 10 µM	3.26 ± 0.4 µM	2.14 ± 0.1 µM	1.43 ± 0.2 µM	1.06 ± 0.1 µM	> 10 µM	> 10 µM		77.41%	82.77%
[Br-].[Br-].c1cc2c(s1)c(N1CCCC1)nc[n+]2Cc1ccc(-c2ccc(C[n+]3cnc(N4CCCC4)c4sccc43)cc2)cc1 [Fa-21]	> 10 µM	> 10 µM	> 10 µM	3.4 ± 0.7 µM	1.71 ± 0.4 µM	0.22 ± 0.01 µM	> 10 µM	> 10 µM	≥ 5 µM	74.57%	86.58%
[Br-].[Br-].c1cc2c(N3CCCCC3)nc[n+](Cc3ccc(CCCCc4ccc(C[n+]5cnc(N6CCCCC6)c6ccsc65)cc4)cc3)c2s1 [Ff-6]	6.7 ± 0.8 µM	1.5 ± 0.2 µM	0.42 ± 0.05 µM	0.19 ± 0.01 µM	0.5 ± 0.02 µM	0.19 ± 0.03 µM	0.93 ± 0.04 µM	2.52 ± 0.2 µM	≥ 10 µM	46.43%	73.19%
